Source: US10138469B2, “Synthetic peptide and use thereof” (Toagosei Co., Ltd., priority 2014, dated 2018)

Assays:
CCD1079SK cells [1] = experiment: Production of SIRIUS cells: cluster formation and cell morphology of fibroblasts cultured with peptide (phase-contrast microscopy); format: cell-based, human; details: for cell morphology in the culture: days 1 to 6
Description: SIRIUS cells were produced using the sample 1 obtained in Working Example 1. CCD1079SK cells (ATCC (registered trademark) CRL-2097), which are a fibroblast cell culture line derived from human skin tissue, were used as the sample cells. The details of the tests are as follows.
The CCD1079SK cells, which had been stored frozen, were inoculated to six culture dishes with a diameter of 60 mm (60 mm dishes) to provide a cell density of 3×10^5 cells/well. Specifically, the thawed CCD1079SK cells were first suspended in ordinary Dulbecco's modified Eagle's medium (DMEM medium) to produce a cell suspension having a cell density of 1.5×10^5 cells/mL and 2 mL of this cell suspension was introduced into the 60 mm dish. This DMEM medium contained 10% FBS, 100 units/mL of penicillin, and 100 μg/mL of streptomycin in ordinary DMEM (Wako Pure Chemical Industries, Ltd., Cat. No. 043-30085).
The CCD1079SK cells inoculated into the 60 mm dish were precultured for several hours (approximately 6 hours) in an incubator under conditions of 5% CO2 and 37° C.
After the preculture for several hours, the CCD1079SK cells were subjected to a main culture at one of the culture conditions indicated for examples 1 to 6 in Table 1. The specific culture conditions are given in the following. […]
The culture conditions according to example 5 are as follows: the stock solution of sample 1 is added, in an amount that provides a peptide concentration in the medium of 20 μM, to the DMEM medium (in the 60 mm dish) on which the CCD1079SK cells are being cultured, and culture is carried out under a temperature condition of 13° C. […]
Other than the culture temperature and the presence/absence of peptide addition, the same culture conditions were used in all of examples 1 to 6. Thus, in all of examples 1 to 6, culture was carried out in a 5% CO2 atmosphere using a DMEM medium with the same composition (same as that used in the preculture). In addition, in all of examples 1 to 6, culture exchange and peptide addition (addition of PBS (−) in the peptide-free groups) were carried out every two days after the start of the main culture.
Observation of the cell morphology using a phase-contrast microscope was carried out in each example on the 1st, 2nd, 3rd, 4th, 5th, 6th, 7th, 9th, 13th, 21st, 27th, and 34th days after the start of the main culture (cell culture in the presence of peptide). Among the images in FIG. 2, the micrographs given for example 3 are micrographs (images) showing cell aggregates (clusters) that were rarely identified when tests were independently repeated a plurality of times using the same conditions as in example 3.

CCD1079SK cells [2] = experiment: Evaluation of the state of undifferentiation of SIRIUS cells by cytoimmunostaining of undifferentiated marker genes; format: cell-based, human; details: sample 1 20 μM, 30° C., 3 days; fluorescent immunostaining
Protocol: The state of undifferentiation of the SIRIUS cells (cells forming clusters) produced using the sample 1 obtained in example 1 was evaluated by cytoimmunostaining (fluorescent immunostaining) of the state of expression of undifferentiated marker genes (endogenous Oct3/4, Nanog, Sox2, TRA1-81, SSEA-3, and ALP), i.e., the state of expression of protein that is a gene product of these genes (this protein is also referred to as “undifferentiated marker protein” below). The details of the evaluation test are as follows.
The SIRIUS cells according to this working example were produced by culture under the same conditions as the culture conditions given in example 1 of Working Example 2 with the following exceptions: a cell culture chamber having 1 well per slide (culture area of 19 mm×44 mm) (also referred to as a slide chamber) was used as the culture chamber, 1.5×10^5 cells/well was used for the number of cells per well; and 1 mL was used for the amount of medium per well. The status of differentiation of the SIRIUS cells was evaluated by cytoimmunostaining as follows on the 3rd day after the start of the main culture (culture in the presence of peptide).
Fixing, a permeabilization treatment, and a blocking treatment were first carried out on the cells in each test group. Specifically, the medium was removed from the culture chamber (slide chamber) in each test group once the culture for 3 days in the presence of peptide had been completed and the cells in each slide chamber were washed with cold PBS. PBS containing 4 volume % paraformaldehyde (4% paraformaldehyde solution) was then added to the slide chamber and the cells were fixed by standing for 15 minutes on ice. After the prescribed time had elapsed, the 4% paraformaldehyde solution was removed and the cells in the slide chamber were washed with cold PBS.
PBS containing 0.25 volume % Triton (registered trademark) X-100 (0.25% Triton (registered trademark) X-100 solution) was then added to each slide chamber and a permeabilization treatment was carried out on the cell membrane by standing for 15 minutes on ice. After the prescribed time had elapsed, the 0.25% Triton (registered trademark) X-100 solution was removed and the cells in the slide chamber were washed with cold PBS.
PBS containing 1% BSA (1% BSA-containing PBS) was added to each slide chamber and a blocking treatment was carried out for 1 hour at room temperature. After the prescribed time had elapsed, the 1% BSA-containing PBS was removed and the cells in the slide chamber were washed with cold PBS.
The primary antibodies (primary antibody dilution)—obtained by the dilution at the prescribed ratio (dilution ratio shown in Table 2) with 0.1% BSA/PBS of primary antibody that recognized the particular undifferentiated marker protein—were respectively added to the slide chambers and standing was carried out overnight (approximately 16 to 18 hours) at 4° C. After the prescribed time had elapsed, the primary antibody dilution was removed and washing with cold PBS was performed.
Table 2 gives the undifferentiation markers used to evaluate the status of expression in this working example, the details for the primary antibody (product name, product number, immunized animal, antibody class) used to recognize the particular undifferentiated marker protein, and the dilution ratio for the primary antibody. Of the primary antibodies given in Table 2, the anti-Oct3/4 antibody was from Santa Cruz Biotechnology, Inc. and the anti-Nanog antibody, anti-Sox2 antibody, anti-TRA1-81 antibody, anti-SSEA-3 antibody, and anti-ALP antibody were from Abcam plc.
Secondary antibody (secondary antibody dilution)—obtained by the 1000× dilution with 0.1% BSA/PBS of a secondary antibody that detected the particular primary antibody—was added to the slide chamber and standing was carried out in the dark for 2 hours at room temperature. After the prescribed time had elapsed, the secondary antibody dilution was removed and washing with cold PBS was performed. […]

[3] = example 2: sample 1 20 μM, 37° C.

## CKSKSRRSC [sample 1]
CCD1079SK cells [1]; example 1: sample 1 20 μM, 30° C., 60 mm dish
  time to formation of aggregates (clusters) of aggregated cells after the start of the main culture: ≤ 3 days
CCD1079SK cells [1]; example 1 conditions: 20 μM, 30° C., 26 times in 27 tests
  probability that at least 1 cluster was formed in the 60 mm dish within the 3rd day after the start of culture: at least 95%
CCD1079SK cells [1]; example 1 conditions: 20 μM, 30° C., within the 3rd day
  number (frequency) of clusters formed per one 60 mm dish, average: 3
CCD1079SK cells [1]; [3]
  formation of cell aggregates (clusters) within 3 days after the start of the main culture: did not form, or their formation frequency was very low
  persistence of the rarely observed clusters: disappeared by the 34th day
CCD1079SK cells [1]; example 5: sample 1 20 μM, 13° C.
  cell morphology in the culture: very close to a dead cell morphology
CCD1079SK cells [1]; example 6: sample 1 20 μM, 22° C.
  cell morphology in the culture: very close to a dead cell morphology
CCD1079SK cells [2]
  expression of undifferentiated marker gene ALP by cells constituting the clusters: strongly expressed
  expression of undifferentiated marker gene Nanog by cells constituting the clusters: strongly expressed
  expression of undifferentiated marker gene Oct3/4 by cells constituting the clusters: strongly expressed
  expression of undifferentiated marker gene SSEA-3 by cells constituting the clusters: strongly expressed
  expression of undifferentiated marker gene Sox2 by cells constituting the clusters: strongly expressed
  expression of undifferentiated marker gene TRA1-81 by cells constituting the clusters: strongly expressed
